Common to all, as to assay: NCI tumour cell line growth inhibition, 48 h
The test system of assay [1] is SR leukemia.
Assay [2] relates to OVCAR-5 ovarian.
Assay [3] deals with HOP-92 NSCLC.
Assay [4] relates to A549 NSCLC.
Assay [5] relates to MOLT-4 leukemia.
The subject of assay [6] is HCT-15 colon.
Assay [7] has as its system COLO 205 colon.
Assay [8] deals with OVCAR-4 ovarian.

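All cell lines were grown in 96-well plates and treated with compound for 48 hours. GI50 marks 50% less growth. TGI: concentration producing complete growth inhibition.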

For `NP1(Oc2ccc(F)cc2)=NP(N)(Oc2ccc(F)cc2)=NP(Oc2ccc(F)cc2)(Oc2ccc(F)cc2)=N1` (configuration not stated), the TGI stood at 15.6 µM in assay [1]; 23.7 µM in assay [2]; 15.4 µM in assay [3]; 14.6 µM in assay [4]; 10.5 µM in assay [5]; 14.6 µM in assay [6]. The same compound returned a TGI in assay [7] of 19.4 µM.

Turning to `CC1=C(C(=S)Nc2ccc(Cl)c(C(=O)OC(C)C)c2)SCCO1`, the TGI in assay [2] is > 100 µM; in assay [3] it was 38.5 µM; in assay [4], 84.1 µM; in assay [5], 46.6 µM; in assay [6], 44.9 µM; in assay [8] it was 43.5 µM. Also, the TGI in assay [7] was found to be 37.4 µM.

With `O=C(O)CCCCCNCc1cc2cc3c(cc2c2cc(OCc4ccccc4)ccc12)OCO3`, the GI50 in assay [1] was 1.7 µM; in assay [2] it was 2.33 µM; in assay [3] it was 1.38 µM; in assay [4], 1.55 µM; in assay [5] it was 2.23 µM; in assay [6] it was 2.03 µM. Besides, the GI50 in assay [8] is 3.26 µM. The TGI was found to be 5.3 µM in assay [1]; 5.23 µM in assay [2]; 2.98 µM in assay [3]; 3.17 µM in assay [4]; 24.2 µM in assay [5]; 5.88 µM in assay [6]. The same compound had a TGI in assay [8] of 12.6 µM.

For the compound `COc1ccc(/C=C\c2cc(OC)c(OC)c(OC)c2)cc1NC(=O)/C=C/c1cc(OC)c(OC)c(OC)c1`, the GI50 in assay [1] is 0.854 µM; in assay [2], 5.74 µM; in assay [3] it was 3.6 µM; in assay [4], 3.82 µM; in assay [5], 8.52 µM; in assay [6], 5.14 µM. The GI50 in assay [8] was 6.77 µM; in assay [7], 4.41 µM. The TGI in assay [1], in assay [2], in assay [3], in assay [4], in assay [5] and in assay [6] was > 100 µM throughout. In addition, the values for the TGI in assay [8] and in assay [7] were > 100 µM and 18.5 µM, respectively.

Regarding `CC1CCc2c(C(=O)Nc3ncc(Cc4cccc([N+](=O)[O-])c4)s3)csc2C1` (configuration not stated), the GI50 in assay [1] is 0.176 µM; in assay [2], 1.56 µM; in assay [3] it was 2.68 µM; in assay [4] it was 0.944 µM; in assay [5], 0.575 µM; in assay [6] it was 0.389 µM. In addition, the figures for the GI50 in assay [8] and in assay [7] were 1.64 µM and 0.37 µM, respectively. Besides, the TGI in assay [1], in assay [2], in assay [3], in assay [4], in assay [5] and in assay [6] was > 100 µM throughout. For the same compound, the TGI is > 100 µM in assay [8] and 19.6 µM in assay [7].

On to `CC(C)(C)n1cc(-c2ccnc(NCCCNS(=O)(=O)c3cccc4ccccc34)c2)c(-c2cccc(O)c2)n1`, for which the GI50 is 1.4 µM in assay [1]; 1.98 µM in assay [2]; 1.71 µM in assay [3]; 2.29 µM in assay [4]; 2 µM in assay [5]; 1.53 µM in assay [6]. The GI50 in assay [8] was 1.92 µM; in assay [7] it was 1.89 µM. Also, the TGI in assay [1] worked out at 5.65 µM; in assay [2], 4.06 µM; in assay [3], 5.07 µM; in assay [4], 5.99 µM; in assay [5], 5.5 µM; in assay [6], 3.64 µM. Also, the TGI was 4.75 µM in assay [8] and 3.72 µM in assay [7].

On to `CN1CCN(Cc2ccc(NC(=O)c3cncc(C#Cc4c(N)ncc5ccccc45)c3)cc2C(F)(F)F)CC1`, for which the GI50 was 0.259 µM in assay [1]; 0.658 µM in assay [2]; 0.158 µM in assay [3]; 0.668 µM in assay [4]; 0.276 µM in assay [5]; 0.293 µM in assay [6]. Besides, the GI50 is 0.309 µM in assay [8] and 0.213 µM in assay [7]. For the same compound, the TGI in assay [1] was found to be 3.7 µM; in assay [2] it was 1.45 µM; in assay [3], 0.836 µM; in assay [4], 1.45 µM; in assay [5], 1.37 µM; in assay [6], 0.998 µM. The TGI in assay [8] came to 1.1 µM; in assay [7] it was 0.812 µM.

For `CNC(=O)c1sc(-n2cnc3cc(OC)c(OC)cc32)cc1OCc1ccccc1C(F)(F)F`, the GI50 is 9.49 µM in assay [1]; > 25 µM in assay [2]; 2.2 µM in assay [3]; > 25 µM in assay [4]; > 23.6 µM in assay [5]; > 25 µM in assay [6]. Further, the GI50 in assay [8] and in assay [7] was > 25 µM throughout. For the same compound, the TGI in assay [1], in assay [2], in assay [3], in assay [4], in assay [5] and in assay [6] was > 25 µM each time. Further, the TGI in assay [8] and in assay [7] was > 25 µM throughout.

On to `COc1cc([C@H]2OC[C@@H]3C(c4cc(OC)c5c(c4)OCO5)OC[C@H]23)cc(OC)c1OC` (some centres not stated), for which the TGI in assay [1], in assay [2], in assay [3], in assay [4], in assay [5] and in assay [6] was > 100 µM each time. Further, the TGI in assay [8] and in assay [7] was > 100 µM throughout.

Take `N#Cc1ccc2c(-c3ccnc(NC4CC4)n3)c(-c3ccc(F)cc3)nn2c1`: the GI50 in assay [1], in assay [2], in assay [3], in assay [4], in assay [5] and in assay [6] was > 25 µM in each case. Moreover, the GI50 in assay [8] and in assay [7] was > 25 µM in each case. Besides, the TGI in assay [1], in assay [2], in assay [3], in assay [4], in assay [5] and in assay [6] was > 25 µM throughout. The TGI in assay [8] and in assay [7] was > 25 µM each time.

The record behind these values is PubChem BioAssay (NCI).
